From ChEMBL document CHEMBL1201862, “PubChem BioAssay data set” (2004)
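Interpolation was linear, between the two tested concentrations surrounding the appropriate level; five concentrations were tested over 48 hours in 96-well plates. GI50 marks 50% less growth.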 Active and inactive are the calls of the source. No stated cut-off is given here; in the data, active = GI50 up to about 1.1 µM and inactive = higher.

Columns and labels:
Assay in all cases: inhibition of tumour cell growth, NCI panel, 48 h
MDA-N = test system: MDA-N
BT-549 = test system: BT-549
NCI/ADR-RES = test system: NCI/ADR-RES
SF-539 = test system: SF-539
MDA-MB-231 = test system: MDA-MB-231
NCI-H23 = test system: NCI-H23
PC-3 = test system: PC-3
SN12C = test system: SN12C
SF-295 = test system: SF-295
CAKI-1 = test system: CAKI-1
OVCAR-5 = test system: OVCAR-5
A549 = test system: A549
LOX IMVI = test system: LOX IMVI
M14 = test system: M14
SW-620 = test system: SW-620
OVCAR-4 = test system: OVCAR-4
HOP-92 = test system: HOP-92
ACHN = test system: ACHN
OVCAR-3 = test system: OVCAR-3
HCC 2998 = test system: HCC 2998
SNB-19 = test system: SNB-19
UO-31 = test system: UO-31
SR = test system: SR
RXF 393 = test system: RXF 393
NCI-H460 = test system: NCI-H460
IGROV-1 = test system: IGROV-1
SF-268 = test system: SF-268
786-0 = test system: 786-0
UACC-62 = test system: UACC-62
HT-29 = test system: HT-29
SK-OV-3 = test system: SK-OV-3
EKVX = test system: EKVX
Malme-3M = test system: Malme-3M
DU-145 = test system: DU-145
HCT-116 = test system: HCT-116
MDA-MB-435 = test system: MDA-MB-435
NCI-H522 = test system: NCI-H522
SK-MEL-5 = test system: SK-MEL-5
COLO 205 = test system: COLO 205
NCI-H226 = test system: NCI-H226
HCT-15 = test system: HCT-15
U-251 = test system: U-251
A498 = test system: A498
K562 = test system: K562
KM12 = test system: KM12
HOP-62 = test system: HOP-62
SK-MEL-28 = test system: SK-MEL-28
OVCAR-8 = test system: OVCAR-8
MCF7 = test system: MCF7
SNB-75 = test system: SNB-75
SK-MEL-2 = test system: SK-MEL-2
UACC-257 = test system: UACC-257
RPMI-8226 = test system: RPMI-8226
Hs-578T = test system: Hs-578T
T47D = test system: T47D
TK-10 = test system: TK-10

**Q.** Which GI50 (MDA-N) does the source give for `S=C(Nc1ccc2cn[nH]c2c1)Nc1ccc2cn[nH]c2c1` here?
**A.** 57.4 µM (inactive)

**Q.** What about the GI50 (BT-549) of the same molecule?
**A.** 27.6 µM (inactive)

**Q.** And the GI50 (NCI/ADR-RES)?
**A.** > 100 µM (inactive)

**Q.** What about the GI50 (SF-539) of the same molecule?
**A.** > 100 µM (inactive)

**Q.** And the GI50 (MDA-MB-231)?
**A.** > 100 µM (inactive)

**Q.** What about the GI50 (NCI-H23) of the same molecule?
**A.** 41.6 µM (inactive)

**Q.** And the GI50 (PC-3)?
**A.** 48.5 µM (inactive)

**Q.** And the GI50 (SN12C)?
**A.** > 100 µM (inactive)

**Q.** What about the GI50 (SF-295) of the same molecule?
**A.** 87.3 µM (inactive)

**Q.** And the GI50 (CAKI-1)?
**A.** > 100 µM (inactive)

**Q.** And the GI50 (OVCAR-5)?
**A.** 95.5 µM (inactive)

**Q.** What about the GI50 (A549) of the same molecule?
**A.** 96.8 µM (inactive)

**Q.** And the GI50 (LOX IMVI)?
**A.** 70 µM (inactive)

**Q.** And the GI50 (M14)?
**A.** > 100 µM (inactive)

**Q.** And the GI50 (SW-620)?
**A.** > 100 µM (inactive)

**Q.** What about the GI50 (OVCAR-4) of the same molecule?
**A.** > 100 µM (inactive)

**Q.** What about the GI50 (HOP-92) of the same molecule?
**A.** > 100 µM (inactive)

**Q.** What about the GI50 (ACHN) of the same molecule?
**A.** 51.8 µM (inactive)

**Q.** What about the GI50 (OVCAR-3) of the same molecule?
**A.** > 100 µM (inactive)

**Q.** And the GI50 (HCC 2998)?
**A.** 60.8 µM (inactive)

**Q.** And the GI50 (SNB-19)?
**A.** > 100 µM (inactive)

**Q.** And the GI50 (UO-31)?
**A.** > 100 µM (inactive)

**Q.** And the GI50 (SR)?
**A.** 25.8 µM (inactive)

**Q.** What about the GI50 (RXF 393) of the same molecule?
**A.** > 100 µM (inactive)

**Q.** And the GI50 (NCI-H460)?
**A.** 43 µM (inactive)

**Q.** And the GI50 (IGROV-1)?
**A.** 46.8 µM (inactive)

**Q.** What about the GI50 (SF-268) of the same molecule?
**A.** > 100 µM (inactive)

**Q.** What about the GI50 (786-0) of the same molecule?
**A.** 98.2 µM (inactive)

**Q.** What about the GI50 (UACC-62) of the same molecule?
**A.** 48.5 µM (inactive)

**Q.** And the GI50 (HT-29)?
**A.** 50 µM (inactive)

**Q.** What about the GI50 (SK-OV-3) of the same molecule?
**A.** > 100 µM (inactive)

**Q.** What about the GI50 (EKVX) of the same molecule?
**A.** 54 µM (inactive)

**Q.** And the GI50 (Malme-3M)?
**A.** > 100 µM (inactive)

**Q.** And the GI50 (DU-145)?
**A.** > 100 µM (inactive)

**Q.** What about the GI50 (HCT-116) of the same molecule?
**A.** 58.5 µM (inactive)

**Q.** What about the GI50 (MDA-MB-435) of the same molecule?
**A.** 58.9 µM (inactive)

**Q.** And the GI50 (NCI-H522)?
**A.** 34.1 µM (inactive)

**Q.** What about the GI50 (SK-MEL-5) of the same molecule?
**A.** 45.1 µM (inactive)

**Q.** What about the GI50 (COLO 205) of the same molecule?
**A.** 44.8 µM (inactive)

**Q.** And the GI50 (NCI-H226)?
**A.** 44.1 µM (inactive)

**Q.** And the GI50 (HCT-15)?
**A.** 63.5 µM

**Q.** What about the GI50 (U-251) of the same molecule?
**A.** 57.4 µM (inactive)

**Q.** And the GI50 (A498)?
**A.** 46 µM (inactive)

**Q.** What about the GI50 (K562) of the same molecule?
**A.** 61.7 µM (inactive)

**Q.** What about the GI50 (KM12) of the same molecule?
**A.** 53.7 µM (inactive)

**Q.** And the GI50 (HOP-62)?
**A.** > 100 µM (inactive)

**Q.** And the GI50 (SK-MEL-28)?
**A.** > 100 µM (inactive)

**Q.** And the GI50 (OVCAR-8)?
**A.** 72.3 µM (inactive)

**Q.** What about the GI50 (MCF7) of the same molecule?
**A.** 82 µM (inactive)

**Q.** What about the GI50 (SNB-75) of the same molecule?
**A.** 53 µM (inactive)

**Q.** And the GI50 (SK-MEL-2)?
**A.** 35.6 µM (inactive)

**Q.** What about the GI50 (UACC-257) of the same molecule?
**A.** 96.6 µM (inactive)

**Q.** And the GI50 (RPMI-8226)?
**A.** 38 µM (inactive)

**Q.** What about the GI50 (Hs-578T) of the same molecule?
**A.** > 100 µM (inactive)

**Q.** What about the GI50 (T47D) of the same molecule?
**A.** 33.5 µM (inactive)

**Q.** What about the GI50 (TK-10) of the same molecule?
**A.** 48.1 µM (inactive)
